Assays:
Sarcoma 180 [1] = experiment: Comparative antitumor testing against Sarcoma 180; type: in vivo, murine / mice; conditions: p.o. daily × 7, Day 14
From the text: (§1) Mice were inoculated subcutaneously with Sarcoma 180, Meth A fibrosarcoma and UV 2237 fibrosarcoma, respectively at Day 0. The mice were then orally administered with the compounds daily for 7 times from Day 1. The efficacy
(§2) was expressed as therapeutic indices (EDmax /ED50) measured at Day 14 after the tumor inoculation, where EDmax is a dose showing maximum inhibition of tumor growth.

Meth A fibrosarcoma [2] = experiment: Comparative antitumor testing against Meth A fibrosarcoma; type: in vivo, murine / mice; conditions: p.o. daily × 7, Day 14
From the text: as §1, §2

UV 2237 fibrosarcoma = experiment: Comparative antitumor testing against UV 2237 fibrosarcoma; type: in vivo, murine / mice; conditions: p.o. daily × 7, Day 14
From the text: as §1, §2

Meth A fibrosarcoma [3] = experiment: Comparative study on antitumor activity against Meth A fibrosarcoma with 5'-deoxy-5-fluorouridine; type: in vivo, mice
Protocol: (§3) Meth A fibrosarcoma cells (2×10^5 cells) were implanted subcutaneously into mice (21-22 g). The testing against Meth A fibrosarcoma and the calculation of the percent inhibition of tumor growth were effected according to a manner analogous to that of the testing against Sarcoma 180.
(§4) The comparative study on antitumor activity of a representative compound (Example 3) of the present invention with 5'-deoxy-5-fluorouridine was performed according to a manner analogous to that of the antitumor testing against Meth A fibrosarcoma.

[4] = Fecal observation on Day 8 and toxicity in the comparative Meth A study; conditions: for diarrhea: mouse, in vivo
Protocol: as §4

Lewis lung carcinoma = conditions: mouse, in vivo, po
Protocol: Mice were inoculated subcutaneously with Lewis lung carcinoma (10^6 cells) on day 0.
The compounds were administered daily for 14 times from day 1 by the p.o. route. The effective dose (ED50) at which tumor growth was inhibited by 50%, and toxic doses were determined.

[5] = words, general knowledge; cited from earlier work
Sarcoma 180 [6] = experiment: Antitumor testing against Sarcoma 180 (oral, s.c. implanted); type: in vivo, mice; conditions: Mus musculus, 336 h, day 14, read-out: Inhibition of tumor growth; for inhibition in vivo at 1100 µmol/kg: 1.1 mmole/kg/day × 7, p.o.; for inhibition in vivo at 2200 µmol/kg: 2.2 mmole/kg/day × 7, p.o.; for inhibition in vivo at 800 µmol/kg: 0.8 mmole/kg/day × 7, p.o.; for inhibition in vivo at 1500 µmol/kg: 1.5 mmole/kg/day × 7, p.o.; for inhibition in vivo at 500 µmol/kg: 0.5 mmole/kg/day × 7, p.o.
Protocol: (§5) Sarcoma 180 cells (2×10^6 cells) were implanted subcutaneously into mice (20-22 g) on day 0. The compounds of the present invention were administered daily from day 1 through 7 orally. The animals were sacrificed on day 14 and tumors were excised and weighed. The percent inhibition of tumor growth given in Table 1 below was calculated from the formula:
(§6) T=weight of the tumors from the treated group, C=weight of the tumors from the control group.

Meth A fibrosarcoma [7] = experiment: Antitumor testing against Meth A fibrosarcoma (oral, s.c. implanted); type: in vivo, mice; conditions: Mus musculus, read-out: Inhibition of tumor growth; for inhibition in vivo at 1500 µmol/kg: 1.5 mmole/kg/day × 7, p.o.; for inhibition in vivo at 3000 µmol/kg: 3.0 mmole/kg/day × 7, p.o.
Protocol: as §5, §6, §3

in vivo = conditions: mouse, po

With `C[C@H]1O[C@@H](n2cc(F)c(N)nc2=O)[C@H](O)[C@@H]1O` [5'-deoxy-5-fluorocytidine] the “Therapeutic index (EDmax/ED50), S180” value (Sarcoma 180 [1]) was 2.0, the “Therapeutic index (EDmax/ED50), Meth A” value (Meth A fibrosarcoma [2]) was 1.2 and the “Therapeutic index (EDmax/ED50), UV 2237” value (UV 2237 fibrosarcoma) was 1.0.
With `C[C@H]1O[C@@H](n2cc(F)c(=O)[nH]c2=O)[C@H](O)[C@@H]1O` [5'-deoxy-5-fluorouridine, reference compound] the “Inhibition of tumor growth” value (Meth A fibrosarcoma [3]; 0.4 mmole/kg/day × 7) was 34%, the “Inhibition of tumor growth” value (Meth A fibrosarcoma [3]; 0.8 mmole/kg/day × 7) was 31% and the “Inhibition of tumor growth” value (Meth A fibrosarcoma [3]; 1.5 mmole/kg/day × 7) was 66%. The “Inhibition of tumor growth” value (Meth A fibrosarcoma [3]; 3.0 mmole/kg/day × 7) was “toxic”, the diarrhea [4] was “diarrhea, which is the dose limiting factor” and the “Therapeutic index (EDmax/ED50), S180” value (Sarcoma 180 [1]) was 2.4. For the same molecule, the “Therapeutic index (EDmax/ED50), Meth A” value (Meth A fibrosarcoma [2]) was 1.1, the “Therapeutic index (EDmax/ED50), UV 2237” value (UV 2237 fibrosarcoma) was 1.6 and the “Therapeutic index (toxic dose/ED50): 50% Thymus Shrinkage (C)” value (Lewis lung carcinoma) was 5-10. The “Therapeutic index (toxic dose/ED50): 50% reduction No. of bone marrow cells (D)” value (Lewis lung carcinoma) was 5-10 and the “Therapeutic index (toxic dose/ED50): Max. Dose causing no diarrhea (A)” value (Lewis lung carcinoma) was 5.
In the case of `O=c1[nH]cc(F)c(=O)[nH]1` [5-fluorouracil], the “major and dose limiting toxicities” value [5] is given as “cause intestinal toxicities and immunosuppressive toxicities”.
`CCCC(=O)Nc1nc(=O)n([C@@H]2O[C@H](C)[C@@H](O)[C@H]2O)cc1F` [Example 1, N^4-butyryl-5'-deoxy-5-fluorocytidine] showed an inhibition in vivo at 1100 µmol/kg (Sarcoma 180 [6]) of 56%, an inhibition in vivo at 2200 µmol/kg (Sarcoma 180 [6]) of 83% and an inhibition in vivo at 1500 µmol/kg (Meth A fibrosarcoma [7]) of 50%. The inhibition in vivo at 3000 µmol/kg (Meth A fibrosarcoma [7]) was 72%, the “Therapeutic index (EDmax/ED50), S180” value (Sarcoma 180 [1]) was 2.3 and the “Therapeutic index (EDmax/ED50), Meth A” value (Meth A fibrosarcoma [2]) was 2.0. For the same molecule, the “Therapeutic index (EDmax/ED50), UV 2237” value (UV 2237 fibrosarcoma) was 4.8, the “Therapeutic index (toxic dose/ED50): 50% Thymus Shrinkage (C)” value (Lewis lung carcinoma) was 11.3 and the “Therapeutic index (toxic dose/ED50): 50% reduction No. of bone marrow cells (D)” value (Lewis lung carcinoma) was 10.7. For the same molecule, the “Therapeutic index (toxic dose/ED50): Max. Dose causing no diarrhea (A)” value (Lewis lung carcinoma) was over 13 and the LD50 (in vivo) was over 2000 mg/kg.
With `COc1cc(C(=O)Nc2nc(=O)n([C@@H]3O[C@H](C)[C@@H](O)[C@H]3O)cc2F)cc(OC)c1OC` [Example 3, 5'-deoxy-5-fluoro-N^4-(3,4,5-trimethoxybenzoyl)cytidine] the inhibition in vivo at 1500 µmol/kg (Meth A fibrosarcoma [7]) was 86%, the inhibition in vivo at 3000 µmol/kg (Meth A fibrosarcoma [7]) was 79% and the “Inhibition of tumor growth” value (Meth A fibrosarcoma [3]; 0.4 mmole/kg/day × 7) was -27%. For the same molecule, the “Inhibition of tumor growth” value (Meth A fibrosarcoma [3]; 0.8 mmole/kg/day × 7) was 20%, the “Inhibition of tumor growth” value (Meth A fibrosarcoma [3]; 1.5 mmole/kg/day × 7) was 86% and the “Inhibition of tumor growth” value (Meth A fibrosarcoma [3]; 3.0 mmole/kg/day × 7) was 79%. The “antitumor activity compared with 5'-deoxy-5-fluorouridine” value (Meth A fibrosarcoma [3]; words) was “more potent in the antitumor activity”, the diarrhea [4] was “did not cause diarrhea” and the “toxicity compared with 5'-deoxy-5-fluorouridine” value ([4]; words) was “less toxic than 5'-deoxy-5-fluorouridine”.
In the case of `CCCCCCCC(=O)Nc1nc(=O)n([C@@H]2O[C@H](C)[C@@H](O)[C@H]2O)cc1F` [Example 5, 5'-deoxy-5-fluoro-N^4-octanoylcytidine], the inhibition in vivo at 1100 µmol/kg (Sarcoma 180 [6]) is reported as 62%, the inhibition in vivo at 2200 µmol/kg (Sarcoma 180 [6]) is reported as 82% and the LD50 (in vivo) is reported as over 2000 mg/kg.
In the case of `CC(C)C(=O)Nc1nc(=O)n([C@@H]2O[C@H](C)[C@@H](O)[C@H]2O)cc1F` [Example 9, 5'-deoxy-5-fluoro-N^4-isobutyrylcytidine], the inhibition in vivo at 1400 µmol/kg (Sarcoma 180 [6]; 1.4 mmole/kg/day × 7, p.o.) is reported as 76%, the inhibition in vivo at 2700 µmol/kg (Sarcoma 180 [6]; 2.7 mmole/kg/day × 7, p.o.) is reported as 96% and the LD50 (in vivo) is reported as over 2000 mg/kg.
Molecule `C[C@H]1O[C@@H](n2cc(F)c(NC(=O)C3CC3)nc2=O)[C@H](O)[C@@H]1O` [Example 11, N^4-cyclopropanecarbonyl-5'-deoxy-5-fluorocytidine] has an inhibition in vivo at 800 µmol/kg (Sarcoma 180 [6]) of 69% and an inhibition in vivo at 1500 µmol/kg (Sarcoma 180 [6]) of 90%.
In the case of `C[C@H]1O[C@@H](n2cc(F)c(NC(=O)C3CCCCC3)nc2=O)[C@H](O)[C@@H]1O` [Example 12, N^4-cyclohexanecarbonyl-5'-deoxy-5-fluorocytidine], the inhibition in vivo at 800 µmol/kg (Sarcoma 180 [6]) is reported as 40% and the inhibition in vivo at 1500 µmol/kg (Sarcoma 180 [6]) is reported as 73%.
`C[C@H]1O[C@@H](n2cc(F)c(NC(=O)C34CC5CC(CC(C5)C3)C4)nc2=O)[C@H](O)[C@@H]1O` [Example 13, N^4-(1-adamantanecarbonyl)-5'-deoxy-5-fluorocytidine] gave an inhibition in vivo at 800 µmol/kg (Sarcoma 180 [6]) of 28% and an inhibition in vivo at 1500 µmol/kg (Sarcoma 180 [6]) of 66%.
`C[C@H]1O[C@@H](n2cc(F)c(NC(=O)/C=C/c3ccccc3)nc2=O)[C@H](O)[C@@H]1O` [Example 15, N^4-cinnamoyl-5'-deoxy-5-fluorocytidine] gave an inhibition in vivo at 800 µmol/kg (Sarcoma 180 [6]) of 47% and an inhibition in vivo at 1500 µmol/kg (Sarcoma 180 [6]) of 62%.
For `Cc1ccc(C(=O)Nc2nc(=O)n([C@@H]3O[C@H](C)[C@@H](O)[C@H]3O)cc2F)cc1` [Example 17], the inhibition in vivo at 1300 µmol/kg (Sarcoma 180 [6]; 1.3 mmole/kg/day × 7, p.o.) was 75% and the inhibition in vivo at 2600 µmol/kg (Sarcoma 180 [6]; 2.6 mmole/kg/day × 7, p.o.) was 92%.
Molecule `COc1ccc(C(=O)Nc2nc(=O)n([C@@H]3O[C@H](C)[C@@H](O)[C@H]3O)cc2F)cc1` [Example 24] has an inhibition in vivo at 1500 µmol/kg (Sarcoma 180 [6]) of 63%, an inhibition in vivo at 3000 µmol/kg (Sarcoma 180 [6]; 3.0 mmole/kg/day × 7, p.o.) of 94% and an LD50 (in vivo) of over 2000 mg/kg.
For `C[C@H]1O[C@@H](n2cc(F)c(NC(=O)c3cccnc3)nc2=O)[C@H](O)[C@@H]1O` [Example 34], the inhibition in vivo at 1300 µmol/kg (Meth A fibrosarcoma [7]; 1.3 mmole/kg/day × 7, p.o.) was 75%, the inhibition in vivo at 2600 µmol/kg (Meth A fibrosarcoma [7]; 2.6 mmole/kg/day × 7, p.o.) was 92% and the LD50 (in vivo) was over 2000 mg/kg.
`CCCCCCCCOC(=O)Nc1nc(=O)n([C@@H]2O[C@H](C)[C@@H](O)[C@H]2O)cc1F` [Example 41, 5'-deoxy-5-fluoro-N^4-(octyloxycarbonyl)cytidine] gave an inhibition in vivo at 500 µmol/kg (Sarcoma 180 [6]) of -18% and an inhibition in vivo at 1500 µmol/kg (Sarcoma 180 [6]) of 36%.
In the case of `C[C@H]1O[C@@H](n2cc(F)c(NC(=O)OCc3ccccc3)nc2=O)[C@H](O)[C@@H]1O` [Example 42, N^4-(benzyloxycarbonyl)-5'-deoxy-5-fluorocytidine], the inhibition in vivo at 500 µmol/kg (Sarcoma 180 [6]) is reported as 0% and the inhibition in vivo at 1500 µmol/kg (Sarcoma 180 [6]) is reported as 36%.
`CCCCC(=O)Nc1nc(=O)n([C@@H]2O[C@H](C)[C@@H](O)[C@H]2O)cc1F` [Example 46, 5'-deoxy-5-fluoro-N^4-valerylcytidine] gave an inhibition in vivo at 1500 µmol/kg (Meth A fibrosarcoma [7]) of 51%, an inhibition in vivo at 3000 µmol/kg (Meth A fibrosarcoma [7]) of 66% and an LD50 (in vivo) of over 2000 mg/kg.
Work on `CC(C)CC(=O)Nc1nc(=O)n([C@@H]2O[C@H](C)[C@@H](O)[C@H]2O)cc1F` [Example 47, 5'-deoxy-5-fluoro-N^4-isovalerylcytidine] yielded an inhibition in vivo at 1500 µmol/kg (Meth A fibrosarcoma [7]) of 29%, an inhibition in vivo at 3000 µmol/kg (Meth A fibrosarcoma [7]) of 59% and an LD50 (in vivo) of over 2000 mg/kg.

Source: patent US4966891A, “Fluorocytidine derivatives” (priority 1987, dated 1990)
